Experimental findings from the OligoGym collection are described below.

These antisense oligonucleotides have a phosphorothioate backbone; sugars and methylation of C are not fully specified.
Note: test concentration or dose not given here.

In one series the target is GNA12. The following applies: ASO.
The sequence AAGATGTTCATGGACTCC gave a remaining target (mRNA or protein) (fraction of control) of 0.33.

Consider AAGTCATGCTCCACAATT, for which the remaining target (mRNA or protein) (fraction of control) was 0.64.

Turning to AAGTTGTCCAGGAAGTAC, the remaining target (mRNA or protein) (fraction of control) was 0.44. Regarding AATTCAGCTGGCCGATCC, the remaining target (mRNA or protein) (fraction of control) is 0.59. Same read-out and setting: to ACAAGAACCCTTGAGCCC belongs 0.74. On the same count and under the same terms, to ACGTGGACTTGCCGCTCT belongs 0.32; to ACTAGGAAAGTAATTCAG, 0.47; to ACTCGCTTCTCCGGCTGA, 0.85. For the sequence ACTGCCAAGGAATGCCAA, the remaining target (mRNA or protein) (fraction of control) is at least 1.

Sequence AGCAGGCAGCGGCTGAGG yielded a remaining target (mRNA or protein) (fraction of control) of 0.93.

The next series deals with GNA13. As to conditions: ASO.
Sequence GCCGCCGCCGCCGCCTCG yielded a remaining target (mRNA or protein) (fraction of control) of at least 1. Sequence GCCTCGCCACTCGTCAGC came in with a remaining target (mRNA or protein) (fraction of control) of 0.5.

Take GCGCTGGTCGAAGTCCTG: the remaining target (mRNA or protein) (fraction of control) was determined as 0.7. In turn, GCTGAAAACCCGGTTATT displayed a remaining target (mRNA or protein) (fraction of control) of 0.65.

On to GGATCCCCTTCAAATTCT, for which the remaining target (mRNA or protein) (fraction of control) stood at 0.72. Still for that read-out and setting: to GTCGATCTCCTTGGACTT belongs 0.65; to GTTGTGATGGAATATAAT, at least 1; to GTTTCCTTTCTGATCTCT, 0.35. Same read-out and setting: the same measure for TAAGGGCTTCTGTTGCTG: 0.55; for TATCCAAGTTATCCAGGA: 0.48. TATCCTTCACGTCGCGGA showed a remaining target (mRNA or protein) (fraction of control) of at least 1. In the case of TATTGATGTCACACTGTC, the remaining target (mRNA or protein) (fraction of control) worked out at 0.48.

On to TCACCAGCCGCTTCACAT, for which the remaining target (mRNA or protein) (fraction of control) turned out to be 0.23. Take TCACGTTGCTGTAGATGG: the remaining target (mRNA or protein) (fraction of control) is at least 1.

Sequence TCGAAACATTCAAACCAA came in with a remaining target (mRNA or protein) (fraction of control) of 0.42.

In turn, TCGAAGTCCTGCCCGTGG had a remaining target (mRNA or protein) (fraction of control) of at least 1.

For the sequence TCGCCCGCGCCCAGCAGC, the remaining target (mRNA or protein) (fraction of control) was 0.31.

Regarding TCTGACCACCTACATCAA, the remaining target (mRNA or protein) (fraction of control) is 0.2. Same read-out and setting: the same measure for TCTGGTTCTCCAAGTTTA: 0.25. TCTTATAGCAGGAAGATA registered a remaining target (mRNA or protein) (fraction of control) of at least 1. Still for that read-out and setting: the same measure for TGAGTTGTCTCCCCAGGG: at least 1; for TGCCTTTGGTGGGTCTTC: 0.51.

TGCTCGGCCTCGCCACTC: the remaining target (mRNA or protein) (fraction of control) was 0.52. Still for that read-out and setting: to TGTTCAGAGACTCTGTAA belongs 0.47; to TTGAGGTTGTCATGCAGA, 0.73; to TTGTACATCACTGTAGCA, 0.41. On the same count and under the same terms, the same measure for TTGTTGGTTTGAGTTGTC: at least 1.

A further series deals with GNAS. As to conditions: ASO.
On to ACACACGGCGGATGTTCTCA, for which the remaining target (mRNA or protein) (fraction of control) is 0.42. Same read-out and setting: to ACACGGCGGATGTTCTCAGT belongs 0.39. ACGGCGGATGTTCTCAGTGT returned a remaining target (mRNA or protein) (fraction of control) of 0.71.

Turning to ACTGAAAGTGAGAGGGAACT, the remaining target (mRNA or protein) (fraction of control) is at least 1.

Take AGCGCAGGTGAAATGAGGGT: the remaining target (mRNA or protein) (fraction of control) was at least 1.

With AGGTGAAATGAGGGTAGCAG, the remaining target (mRNA or protein) (fraction of control) is at least 1. The sequence AGTGAGAGGGAACTTTTGTG yielded a remaining target (mRNA or protein) (fraction of control) of 0.41. The same measure, in the same setting: to ATATTTATTTCATTTGTTTC belongs 0.61; to ATGTTCTCAGTGTCCACAGC, 0.58; to ATTTATTTCATTTGTTTCTT, at least 1. ATTTCATTTGTTTCTTTTAT registered a remaining target (mRNA or protein) (fraction of control) of 0.76. Same read-out and setting: the same measure for ATTTGGAACATCTAAGCAAG: 0.66; for ATTTGTTTGCTGCTGCTGTT: 0.81. The same measure, in the same setting: to CACGGCGGATGTTCTCAGTG belongs 0.44. In turn, CAGGTGAAATGAGGGTAGCA registered a remaining target (mRNA or protein) (fraction of control) of at least 1. The same measure, in the same setting: the same measure for CATTTGTTTCTTTTATTTCA: 0.65. Same read-out and setting: the same measure for CATTTTATTTGTTTGCTGCT: 0.65; for CGCAGGTGAAATGAGGGTAG: 0.35; for CGGCGGATGTTCTCAGTGTC: 0.32. Same read-out and setting: the same measure for CTGAATGATGTCACGGCAGT: 0.63; for CTGCTGCTGTTTTATTTATT: 0.63.
